These results are taken from US10584115B2, “Substituted pyridine and pyrazine BMI-1 inhibitors” (PTC Therapeutics, Inc., priority 2013, dated 2020).

SMILES strings stand for the structures.

For the first assay, the system named is Bmi-1 protein. Kind of assay: Sandwich ELISA Assay (Bmi-1 protein level in HT-1080 cells after compound treatment). In kind it is cell-based. To be noted: Table 1, Bmi-1 sandwich ELISA, read-out: ELISA EC50 value for Bmi-1 protein. The gist of the method: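 Sandwich ELISA quantified Bmi-1 protein against recombinant standard (125–8000 pg/mL), with lysates captured overnight at 4 °C and signal by HRP/TMB at 450 nm (570 nm reference). Lysates came from HT-1080 cells incubated 40–48 h with test compounds in 0.5% DMSO.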
On the technique in general: An ELISA detects its analyte on a solid surface through an enzyme-linked reagent.
As usually defined, the EC50 is the concentration needed to bring the measured effect to its halfway point. With `Cc1nc2cc(Cl)ccc2n1-c1cc(C#N)cc(Nc2ccc(C(F)(F)F)cc2)n1` [compound 344, 2-(5-chloro-2-methyl-1H-benzimidazol-1-yl)-6-{[4-(trifluoromethyl)phenyl]amino}pyridine-4-carbonitrile], the EC50 lay in the range of 0.1 to 3 µM.

For the compound `N#Cc1nc2ccccc2n1-c1cncc(Nc2ccc(OC(F)(F)F)cc2)n1` [compound 184, 1-(6-{[4-(trifluoromethoxy)phenyl]amino}pyrazin-2-yl)-1H-benzimidazole-2-carbonitrile], the EC50 lay within 0.1 to 3 µM.

`Cc1nn(C)c(C)c1-c1cncc(Nc2ccc(Br)cc2)n1` [compound 106, N-(4-bromophenyl)-6-(1,3,5-trimethyl-1H-pyrazol-4-yl)pyrazin-2-amine]: the EC50 was less than 0.001 µM.

Regarding `Cc1nc2ccc(F)cc2n1-c1cc(C#N)cc(Nc2ccc(OC(F)(F)F)cc2)n1` [compound 588, 2-(6-fluoro-2-methyl-1H-benzimidazol-1-yl)-6-{[4-(trifluoromethoxy)phenyl]amino}pyridine-4-carbonitrile], the EC50 was 0.01 to 0.1 µM.

Turning to `Cc1nn2ccccc2c1-c1cncc(Nc2ccc(Cl)cc2)n1` [compound 567, N-(4-chlorophenyl)-6-(2-methylpyrazolo[1,5-a]pyridin-3-yl)pyrazin-2-amine], the EC50 fell in the range of 0.01 to 0.1 µM.

On to `OCc1cc(Nc2ccc(C(F)(F)F)cc2)nc(-c2c(C(F)(F)F)nc3ccccn23)c1` [Cpd 219, (2-[2-(trifluoromethyl)imidazo[1,2-a]pyridin-3-yl]-6-{[4-(trifluoromethyl)phenyl]amino}pyridin-4-yl)methanol], for which the EC50 was in the range of 0.01 to 0.1 µM.

As to `FC(F)(F)c1nc2ccccn2c1-c1cncc(Nc2ccc(Cl)cc2)n1` [Cpd 10, N-(4-chlorophenyl)-6-[2-(trifluoromethyl)imidazo[1,2-a]pyridin-3-yl]pyrazin-2-amine], the EC50 was 0.001 to 0.01 µM.

Regarding `Cc1nc2ncc(Nc3ccc(OC(F)F)cc3)cc2n1-c1cncc(Nc2ccc(OC(F)F)cc2)n1` [compound 547, N-[4-(difluoromethoxy)phenyl]-1-(6-{[4-(difluoromethoxy)phenyl]amino}pyrazin-2-yl)-2-methyl-1H-imidazo[4,5-b]pyridin-6-amine], the EC50 lay in the range of 0.1 to 3 µM.

Take `CCc1nc2ncncc2n1-c1cncc(Nc2ccc(C(F)(F)F)cc2)n1` [compound 94, 6-(8-ethyl-7H-purin-7-yl)-N-[4-(trifluoromethyl)phenyl]pyrazin-2-amine]: the EC50 was in the range of 0.1 to 3 µM.

Turning to `CCc1nn2ccccc2c1-c1cncc(Nc2ccc(F)cc2)n1` [compound 630, 6-(2-ethylpyrazolo[1,5-a]pyridin-3-yl)-N-(4-fluorophenyl)pyrazin-2-amine], the EC50 lay in the range of 0.1 to 3 µM.

As to `COc1ccc2nc(C(F)(F)F)c(-c3cncc(Nc4ccc(C#N)cc4)n3)n2c1` [Cpd 49, 4-({6-[6-methoxy-2-(trifluoromethyl)imidazo[1,2-a]pyridin-3-yl]pyrazin-2-yl}amino)benzonitrile], the EC50 lay within 0.1 to 3 µM.

Take `COc1ccc(Nc2cccc(-c3c(C(F)(F)F)nc4ccccn34)n2)cc1Cl` [Cpd 3, N-(3-chloro-4-methoxyphenyl)-6-[2-(trifluoromethyl)imidazo[1,2-a]pyridin-3-yl]pyridin-2-amine]: the EC50 lay within 0.001 to 0.01 µM.

In the case of `Cc1nc2cc(F)c(F)cc2n1-c1cncc(Nc2ccc(OC(F)(F)F)c(F)c2)n1` [compound 301, 6-(5,6-difluoro-2-methyl-1H-benzimidazol-1-yl)-N-[3-fluoro-4-(trifluoromethoxy)phenyl]pyrazin-2-amine], the EC50 lay within 0.1 to 3 µM.

For `FC(F)(F)Oc1ccc(Nc2cccc(-n3c(C(F)(F)F)nc4ccccc43)n2)cc1` [Cpd 39, N-[4-(trifluoromethoxy)phenyl]-6-[2-(trifluoromethyl)-1H-benzimidazol-1-yl]pyridin-2-amine], the EC50 lay in the range of 0.1 to 3 µM.

Consider `CSc1nc2ccccc2n1-c1cncc(Nc2ccc(OC(F)(F)F)cc2)n1` [compound 167, 6-[2-(methylsulfanyl)-1H-benzimidazol-1-yl]-N-[4-(trifluoromethoxy)phenyl]pyrazin-2-amine], for which the EC50 fell in the range of 0.1 to 3 µM.

With `Cc1nc2ccccc2n1-c1cncc(Nc2ccc(C(F)(F)F)c(Cl)c2)n1` [compound 390, N-[3-chloro-4-(trifluoromethyl)phenyl]-6-(2-methyl-1H-benzimidazol-1-yl)pyrazin-2-amine], the EC50 lay within 0.01 to 0.1 µM.

On to `Cc1nn2ccccc2c1-c1cncc(Nc2ccc(OC(F)F)cc2)n1` [compound 498, N-[4-(difluoromethoxy)phenyl]-6-(2-methylpyrazolo[1,5-a]pyridin-3-yl)pyrazin-2-amine], for which the EC50 was in the range of 0.001 to 0.01 µM.

As to `CCc1nc2ccc(F)cc2n1-c1cncc(Nc2ccccc2)n1` [compound 620, 6-(2-ethyl-6-fluoro-1H-benzimidazol-1-yl)-N-phenylpyrazin-2-amine], the EC50 was in the range of 0.1 to 3 µM.

Regarding `CNCc1nc2ccccn2c1-c1cncc(Nc2ccc(C(F)(F)F)cc2)n1` [compound 302, 6-{2-[(methylamino)methyl]imidazo[1,2-a]pyridin-3-yl}-N-[4-(trifluoromethyl)phenyl]pyrazin-2-amine], the EC50 was 0.1 to 3 µM.

For `Cc1cn(-c2cncc(Nc3ccc(C(F)(F)F)cc3)n2)c(C)n1` [compound 300], the EC50 is 0.01 to 0.1 µM.

`Nc1cc(Nc2ccc(C(F)(F)F)c(F)c2)nc(-c2c(C3CC3)nc3ccc(F)cn23)c1` [compound 364, 6-(2-cyclopropyl-6-fluoroimidazo[1,2-a]pyridin-3-yl)-N^2-[3-fluoro-4-(trifluoromethyl)phenyl]pyridine-2,4-diamine]: the EC50 fell in the range of 0.01 to 0.1 µM.

For `CC(C)c1nc2ccccc2n1-c1cncc(Nc2ccc(C(F)(F)F)cc2)n1` [compound 52, 6-[2-(propan-2-yl)-1H-benzimidazol-1-yl]-N-[4-(trifluoromethyl)phenyl]pyrazin-2-amine], the EC50 lay within 0.01 to 0.1 µM.

As for `COc1ccc(Nc2cncc(-n3c(C)nc4ccccc43)n2)cc1F` [compound 12, N-(3-fluoro-4-methoxyphenyl)-6-(2-methyl-1H-benzimidazol-1-yl)pyrazin-2-amine], the EC50 is less than 0.001 µM.

On to `Cc1nc2ncc(F)cc2n1-c1cncc(Nc2ccc(C(F)(F)F)c(F)c2)n1` [compound 373, 6-(6-fluoro-2-methyl-1H-imidazo[4,5-b]pyridin-1-yl)-N-[3-fluoro-4-(trifluoromethyl)phenyl]pyrazin-2-amine], for which the EC50 lay within 0.01 to 0.1 µM.

With `N#Cc1cc(Nc2ccc(OC(F)F)cc2)nc(-c2c(C3CC3)nc3ccc(F)cn23)c1` [compound 348, 2-(2-cyclopropyl-6-fluoroimidazo[1,2-a]pyridin-3-yl)-6-{[4-(difluoromethoxy)phenyl]amino}pyridine-4-carbonitrile], the EC50 fell in the range of 0.001 to 0.01 µM.

As for `FC(F)Oc1ccc(Nc2cncc(-c3c(C(F)(F)F)nc4n3CCCC4)n2)cc1` [Cpd 233, N-[4-(difluoromethoxy)phenyl]-6-[2-(trifluoromethyl)-5,6,7,8-tetrahydroimidazo[1,2-a]pyridin-3-yl]pyrazin-2-amine], the EC50 was 0.001 to 0.01 µM.

Regarding `COc1ccc2nc(C)c(-c3cc(C#N)cc(Nc4ccc(C(F)(F)F)cc4)n3)n2c1` [compound 379, 2-(6-methoxy-2-methylimidazo[1,2-a]pyridin-3-yl)-6-{[4-(trifluoromethyl)phenyl]amino}pyridine-4-carbonitrile], the EC50 was 0.01 to 0.1 µM.

As to `Cc1cnc(C)n1-c1cncc(Nc2ccc(C(F)(F)F)cc2)n1` [Cpd 355, 6-(2,5-dimethyl-1H-imidazol-1-yl)-N-[4-(trifluoromethyl)phenyl]pyrazin-2-amine], the EC50 is 0.1 to 3 µM.

Consider `COc1ccc(Nc2nc(-c3c(C(F)(F)F)nc4ccccn34)ccc2C#N)cc1` [compound 41, 2-[(4-methoxyphenyl)amino]-6-[2-(trifluoromethyl)imidazo[1,2-a]pyridin-3-yl]pyridine-3-carbonitrile], for which the EC50 lay within 0.1 to 3 µM.

As for `Cc1nc2c(F)cccc2n1-c1cc(C#N)cc(Nc2ccc(OC(F)F)cc2)n1` [Cpd 436, 2-{[4-(difluoromethoxy)phenyl]amino}-6-(4-fluoro-2-methyl-1H-benzimidazol-1-yl)pyridine-4-carbonitrile], the EC50 lay within 0.01 to 0.1 µM.

Turning to `CCc1cnc(C)n1-c1cncc(Nc2ccc(C(F)(F)F)cc2)n1` [Cpd 372, 6-(5-ethyl-2-methyl-1H-imidazol-1-yl)-N-[4-(trifluoromethyl)phenyl]pyrazin-2-amine], the concentration for a half-maximal effect (EC50) fell in the range of 0.1 to 3 µM.

With `CCc1nn2ccccc2c1-c1cncc(Nc2ccc(C(=O)OC)cc2)n1` [compound 642, methyl 4-{[6-(2-ethylpyrazolo[1,5-a]pyridin-3-yl)pyrazin-2-yl]amino}benzoate], the EC50 is 0.01 to 0.1 µM.

Regarding `COc1ccc(Nc2cccc(-c3c(C(F)(F)F)nc4ccccn34)n2)cc1` [Cpd 4, N-(4-methoxyphenyl)-6-[2-(trifluoromethyl)imidazo[1,2-a]pyridin-3-yl]pyridin-2-amine], the EC50 lay in the range of 0.001 to 0.01 µM.

`Cc1nc2ncc(Cl)cc2n1-c1cncc(Nc2ccc(C(F)(F)F)cc2)n1` [compound 361, 6-(6-chloro-2-methyl-1H-imidazo[4,5-b]pyridin-1-yl)-N-[4-(trifluoromethyl)phenyl]pyrazin-2-amine]: the EC50 fell in the range of 0.001 to 0.01 µM.

Turning to `Cc1nc2cc(F)c(F)cc2n1-c1cncc(Nc2ccc(C=O)cc2)n1` [compound 502, 4-{[6-(5,6-difluoro-2-methyl-1H-benzimidazol-1-yl)pyrazin-2-yl]amino}benzaldehyde], the EC50 lay in the range of 0.01 to 0.1 µM.

As for `CCc1nn2ccccc2c1-c1cncc(Nc2ccc(OC)cc2)n1` [compound 627, 6-(2-ethylpyrazolo[1,5-a]pyridin-3-yl)-N-(4-methoxyphenyl)pyrazin-2-amine], the EC50 was less than 0.001 µM.

The same assay, now with this note: read-out: ELISA EC50 value for Bmi-1 protein, Table 1, Bmi-1 sandwich ELISA.
Regarding `COc1ccc(Nc2cccc(-n3c(C(F)(F)F)nc4ccccc43)n2)cc1` [Cpd 33, N-(4-methoxyphenyl)-6-[2-(trifluoromethyl)-1H-benzimidazol-1-yl]pyridin-2-amine], the EC50 was in the range of 0.01 to 0.1 µM.
